This note sets out measurements from patent publication US6949648B2, “Condensed pyrazole derivatives, process for producing the same and use thereof” (Takeda Pharmaceutical Company Limited, priority 2000, dated 2005).

As usually defined, the melting point is the temperature, or range, at which the solid turns liquid.

With `Cc1nn(-c2ccccn2)c2nc3ccc(F)cc3c(Cl)c12` [Example 2-80, 4-Chloro-6-fluoro-3-methyl-1-(2-pyridinyl)-1H-pyrazolo[3,4-b]quinoline], the melting point lay in the range of 185 to 187 °C. The compound `Cc1nn(-c2ccccn2)c2nc3ccc(Br)cc3c(Cl)c12` [Example 2-86, 6-Bromo-4-chloro-3-methyl-1-(2-pyridinyl)-1H-pyrazolo[3,4-b]quinoline] yielded a melting point of 234 to 235 °C. Consider `Cc1nn(-c2ccccn2)c2[nH]c3ccccc3c(=O)c12` [Example 1-39, 3-Methyl-1-(2-pyridinyl)-1,9-dihydro-4H-pyrazolo[3,4-b]quinolin-4-one], for which the melting point was in the range of 199 to 200 °C. On to `Cc1nn(-c2ccccn2)c2[nH]c3cc(Cl)c(Cl)cc3c(=O)c12` [Example 2-76, 6,7-Dichloro-3-methyl-1-(2-pyridinyl)-1,9-dihydro-4H-pyrazolo[3,4-b]quinolin-4-one], for which the melting point is 303 to 304 °C. In the case of `Cc1nn(-c2ccccn2)c2nc(Cc3ccccc3)cc(O)c12` [Example 1-21, 6-Benzyl-3-methyl-1-(2-pyridinyl)-1H-pyrazolo[3,4-b]pyridin-4-ol], the melting point is 168 to 169 °C. Under `Cc1nn(-c2ncccn2)c2nc3ccccc3c(N)c12.Cl` stands 287 to 290 °C; under `COC(=O)c1ccc2c(Cl)c3c(C)nn(-c4ccccn4)c3nc2c1` [Example 2-66, Methyl 4-chloro-3-methyl-1-(2-pyridinyl)-1H-pyrazolo[3,4-b]quinoline-7-carboxylate], 239 to 240 °C. For `Fc1cc2nc3c(cnn3-c3ccccn3)c(Cl)c2cc1F` [Example 2-198, 4-Chloro-6,7-difluoro-1-(2-pyridinyl)-1H-pyrazolo[3,4-b]quinoline], the melting point was in the range of 167 to 168 °C. `CCc1nn(-c2ccccn2)c2[nH]c3cc(F)c(F)cc3c(=O)c12` [Example 2-201, 3-Ethyl-6,7-difluoro-1-(2-pyridinyl)-1,9-dihydro-4H-pyrazolo[3,4-b]quinolin-4-one] returned a melting point of 247 to 248 °C. As to `COc1cccc(-n2nc(C)c3c(Cl)c4cccc(C)c4nc32)n1` [Example 2-126, 4-Chloro-3,8-dimethyl-1-(6-methoxy-2-pyridinyl)-1H-pyrazolo[3,4-b]quinoline], the melting point was in the range of 148 to 151 °C. `Oc1ccnc2c1cnn2-c1ccccn1` [Example 1-7, 1-(2-Pyridinyl)-1H-pyrazolo[3,4-b]pyridin-4-ol] yielded a melting point of 192 to 194 °C.

`COC(=O)c1ccc2[nH]c3c(c(C)nn3-c3ccccn3)c(=O)c2c1` [Example 2-64, Methyl 3-methyl-4-oxo-1-(2-pyridinyl)-4,9-dihydro-1H-pyrazolo[3,4-b]quinoline-6-carboxylate] yielded a melting point of 265 to 266 °C.

As for `Cc1nn(-c2ccccn2)c2nc3ccccc3c(N)c12` [Example 1-35, 3-Methyl-1-(2-pyridinyl)-1H-pyrazolo[3,4-b]quinolin-4-ylamine], the melting point is 210 to 213 °C. `CC(C)c1nn(-c2ccccn2)c2[nH]c3ccccc3c(=O)c12` [Example 2-173, 3-Isopropyl-1-(2-pyridinyl)-1,9-dihydro-4H-pyrazolo[3,4-b]quinolin-4-one] returned a melting point of 143 to 144 °C. `CC(C)Cc1nn(-c2ccccn2)c2[nH]c3ccccc3c(=O)c12` [Example 2-174, 3-Isobutyl-1-(2-pyridinyl)-1,9-dihydro-4H-pyrazolo[3,4-b]quinolin-4-one]: the melting point was in the range of 167 to 169 °C. Consider `Cc1nn(-c2ccccn2)c2nc3ccc(Cl)cc3c(Cl)c12` [Example 2-70, 4,6-Dichloro-3-methyl-1-(2-pyridinyl)-1H-pyrazolo[3,4-b]quinoline], for which the melting point was 233 to 235 °C. Regarding `Cc1nn(-c2ccncc2)c2[nH]c3cc(F)c(F)cc3c(=O)c12.Cl.Cl`, the melting point fell in the range of 237 to 240 °C. The compound `Cc1nn(-c2ccccn2)c2ncc(C(=O)N(C)c3ccccc3)c(OCc3ccccc3)c12` [Example 1-17, 4-(Benzyloxy)-N,3-dimethyl-N-phenyl-1-(2-pyridinyl)-1H-pyrazolo[3,4-b]pyridine-5-carboxamide] gave a melting point of 92 to 93 °C. Under `Cc1cccnc1-n1nc(C)c2c(Cl)c3cccc(C)c3nc21` [Example 2-133, 4-Chloro-3,8-dimethyl-1-(3-methyl-2-pyridinyl)-1H-pyrazolo[3,4-b]quinoline] stands 182 to 185 °C; under `Cc1nn(-c2cccc(Cl)n2)c2[nH]c3ccccc3c(=O)c12` [Example 2-110, 1-(6-Chloro-2-pyridinyl)-3-methyl-1,9-dihydro-4H-pyrazolo[3,4-b]quinolin-4-one], 251 to 253 °C; under `O=c1c2cc(F)c(F)cc2[nH]c2c1cnn2-c1ccccn1` [Example 2-199, 6,7-Difluoro-1-(2-pyridinyl)-1,9-dihydro-4H-pyrazolo[3,4-b]quinolin-4-one], more than 300 °C.

With `Cc1nn(-c2ccccn2)c2nc3ccccc3c(Cl)c12` [Example 1-34, 4-Chloro-3-methyl-1-(2-pyridinyl)-1H-pyrazolo[3,4-b]quinoline], the melting point fell in the range of 157 to 159 °C. Consider `O=c1c2ccccc2[nH]c2c1c(C(F)(F)F)nn2-c1ccccn1` [Example 2-167, 1-(2-Pyridinyl)-3-trifluoromethyl-1,9-dihydro-4H-pyrazolo[3,4-b]quinolin-4-one], for which the melting point was in the range of 231 to 233 °C.

`Clc1c2ccccc2nc2c1cnn2-c1ccccn1` [Example 2-157, 4-Chloro-1-(2-pyridinyl)-1H-pyrazolo[3,4-b]quinoline]: the melting point lay within 153 to 156 °C. The compound `Cc1nn(-c2ccccn2)c2[nH]c3ccc(Br)cc3c(=O)c12` [Example 2-87, 6-Bromo-3-methyl-1-(2-pyridinyl)-1,9-dihydro-4H-pyrazolo[3,4-b]quinolin-4-one] had a melting point of 240 to 242 °C. Regarding `Cc1cccnc1-n1nc(C)c2c(Cl)c3ccccc3nc21` [Example 2-118, 4-Chloro-3-methyl-1-(3-methyl-2-pyridinyl)-1H-pyrazolo[3,4-b]quinoline], the melting point is 160 to 161 °C. Compound `Cc1nn(-c2ccccn2)c2nc3ncccc3c(Cl)c12` [Example 2-196, 4-Chloro-3-methyl-1-(2-pyridinyl)-1H-pyrazolo[3,4-b][1, 8]naphthyridine] came in with a melting point of 204 to 205 °C.

Consider `Cc1cc(C)nc(-n2nc(C)c3c(Cl)c4ccccc4nc32)n1` [Example 2-147, 4-Chloro-1-(4,6-dimethyl-2-pyrimidinyl)-3-methyl-1H-pyrazolo[3,4-b]quinoline], for which the melting point is 191 to 192 °C. In the case of `Cc1nn(-c2ccccn2)c2nc3ccc(F)c(F)c3c(Cl)c12` [Example 2-88, 4-Chloro-5,6-difluoro-3-methyl-1-(2-pyridinyl)-1H-pyrazolo[3,4-b]quinoline], the melting point fell in the range of 240 to 242 °C. In turn, `CCCCCc1c2ccccc2nc2c1c(C)nn2-c1ccccn1` [Example 2-106, 3-Methyl-4-pentyl-1-(2-pyridinyl)-1H-pyrazolo[3,4-b]quinoline] registered a melting point of 121 to 122 °C. On to `FC(F)(F)c1nn(-c2ccccn2)c2nc3ccccc3c(Cl)c12` [Example 2-166, 4-Chloro-1-(2-pyridinyl)-3-trifluoromethyl-1H-pyrazolo[3,4-b]quinoline], for which the melting point was 166 to 168 °C. In turn, `Cc1nn(-c2ccccn2)c2nc3cc(Cl)c(Cl)cc3c(Cl)c12` [Example 2-75, 4,6,7-Trichloro-3-methyl-1-(2-pyridinyl)-1H-pyrazolo[3,4-b]quinoline] showed a melting point of 213 to 214 °C. `Cc1ccc2nc3c(c(C)nn3-c3ccccn3)c(Cl)c2c1` [Example 2-32, 4-Chloro-3,6-dimethyl-1-(2-pyridinyl)-1H-pyrazolo[3,4-b]quinoline] came in with a melting point of 158 to 160 °C. Under `CCCOc1c2cc(F)c(F)cc2nc2c1c(C)nn2-c1ccccn1` [Example 2-94, 6,7-Difluoro-3-methyl-4-propoxy-1-(2-pyridinyl)-1H-pyrazolo[3,4-b]quinoline] stands 162 to 163 °C; under `Cc1nn(-c2ccccn2)c2ncc(C(=O)N3CCCCC3)c(O)c12` [Example 1-10, [4-Hydroxy-3-methyl-1-(2-pyridinyl)-1H-pyrazolo[3,4-b]pyridin-5-yl](1-piperidinyl)methanone], 264 to 266 °C. Next, `COc1cc2nc3c(c(C)nn3-c3ccccn3)c(N)c2cc1OC.Cl`: 277 to 280 °C. Take `Cc1nn(-c2ccccn2)c2nc3ccccc3c(SC(C)C)c12` [Example 2-25, 4-(Isopropylsulfanyl)-3-methyl-1-(2-pyridinyl)-1H-pyrazolo[3,4-b]quinoline]: the melting point was in the range of 113 to 114 °C. The compound `Cc1nn(-c2ccccn2)c2[nH]c3c(c(=O)c12)CCCC3` [Example 2-194, 3-Methyl-1-(2-pyridinyl)-1,5,6,7,8,9-hexahydro-4H-pyrazolo[3,4-b]quinolin-4-one] came in with a melting point of 172 to 173 °C. `CCOC(=O)c1nn(-c2ccccn2)c2[nH]c3ccccc3c(=O)c12` [Example 2-180, Ethyl 4-oxo-1-(2-pyridinyl)-4,9-dihydro-1H-pyrazolo[3,4-b]quinoline-3-carboxylate] yielded a melting point of 183 to 186 °C.

On to `Cc1nn(-c2ccccn2)c2[nH]c3cccc(C(=O)O)c3c(=O)c12` [Example 2-62, 3-Methyl-4-oxo-1-(2-pyridinyl)-4,9-dihydro-1H-pyrazolo[3,4-b]quinoline-5-carboxylic acid], for which the melting point was 303 to 306 °C.

Take `Fc1cccc2nc3c(cnn3-c3ccccn3)c(Cl)c12` [Example 2-162, 4-Chloro-5-fluoro-1-(2-pyridinyl)-1H-pyrazolo[3,4-b]quinoline]: the melting point lay within 173 to 176 °C. Consider `Cc1cccc2c(=O)c3c(C)nn(-c4ccccn4)c3[nH]c12` [Example 2-38, 3,8-Dimethyl-1-(2-pyridinyl)-1,9-dihydro-4H-pyrazolo[3,4-b]quinolin-4-one], for which the melting point lay in the range of 241 to 243 °C.

`Cc1nn(-c2cccnc2)c2nc3ccccc3c(Cl)c12` [Example 2-136, 4-Chloro-3-methyl-1-(3-pyridinyl)-1H-pyrazolo[3,4-b]quinoline] returned a melting point of 144 to 145 °C.
